Where two headings read alike, the source gives them in different places.
How the values were obtained:
[1] = TG-DTA examination in air atmosphere; format: physicochemical; conditions: for weight loss (TG-DTA): 300° C. (in air), heating rate 10° C./min
Experimental: Compounds 1 to 6 synthesized in (1) to (6) above were examined by TG-DTA (thermogravimetric-differential thermal analysis) in order to investigate the behavior thereof in thermal decomposition. The examination was made with apparatus for both differential thermal analysis and thermogravimetry TG/DTA6200, manufactured by SII Nano Technology Inc., in an air atmosphere (flow rate, 200 mL/min) under the conditions of a heating rate of 10° C./min. In [60]fullerene, a large weight loss accompanied by heat generation began to be observed at around 500° C. This weight loss was due to oxidation/combustion. […] This large weight loss is thought to be attributable to the pyrolysis of the fullerene derivative.

[2] = cited from earlier work
[3] = Solubility of fullerene derivatives in toluene (HPLC determination); format: physicochemical
Experimental: The solubility of a fullerene derivative can be determined, for example, by diluting a solution of the fullerene derivative with a good solvent, e.g., toluene, and examining the dilution with an analyzer such as, e.g., a high-performance liquid chromatograph (HPLC). More specifically, the procedure is as follows. A dilution of the fullerene derivative solution is analyzed with an HPLC having an ultraviolet/visible detector to determine that peak intensity for the fullerene derivative which is obtained from the absorbance of an ultraviolet light having a specific wavelength (e.g., 290 nm). The concentration of the fullerene derivative in the dilution of the fullerene derivative solution is determined from a calibration curve obtained beforehand from fullerene derivative standard solutions having known concentrations (prepared using the solvent used for diluting the fullerene derivative solution). This concentration value is multiplied by the dilution ratio to thereby determine the fullerene derivative concentration in the original fullerene derivative solution.

[4] = TG examination in nitrogen atmosphere; format: physicochemical; conditions: for weight loss (TG-DTA): heating rate 10° C./min; for temperature of weight loss attributable to pyrolysis, compared with air: in nitrogen, result in words
Experimental: The examination was made with apparatus for both differential thermal analysis and thermogravimetry TG/DTA6200, manufactured by SII Nano Technology Inc., in a nitrogen atmosphere (flow rate, 200 mL/min) under the conditions of a heating rate of 10° C./min.

[5] = Washing of coating films with toluene before and after heat treatment; format: physicochemical; conditions: coating film
Experimental: A 5% by mass PGMEA solution of each of Compounds 1, 2, and 5 and a 5% by mass cyclohexanone solution of each of Compounds 3 and 4 were prepared. Each solution was applied to a glass substrate (50×50 mm) with a spin coater and dried at 100° C. Thereafter, the coating films were examined with an optical microscope. As a result, these coating films were ascertained to be even. These coating films were washed with toluene. As a result, the films were removed. It was thus ascertained that the coating films from which the solvent had been removed were soluble in toluene.
The coating films of Compounds 1 to 5 each formed on a glass substrate in (8) were placed in an electric furnace heated at 300° C. and heat-treated for 10 minutes in an air atmosphere.
The fullerene films obtained by the heat treatment of the coating films of Compounds 1 to 3 were examined by X-ray diffractometry (XRD) with RINT 2500, manufactured by Rigaku Corp. […] Measuring conditions are as follows.
The films which had undergone the heat treatment(s) were washed with toluene. […] It can be seen that although the fullerene derivatives applied in film form had been soluble in toluene solvent, the derivatives became insoluble, through the heat treatment(s), in the solvent in which the fullerene is soluble.

[6] = after heat treatment (300° C./in air), 10 minutes

## c12c3c4c5c1c1c6c7c2c2c8c3c3c9c4c4c%10c5c5c1c1c6c6c%11c7c2c2c7c8c3c3c8c9c4c4c9c%10c5c5c1c1c6c6c%11c2c2c7c3c3c8c4c4c9c5c1c1c6c2c3c41 [[60]fullerene]
[1]; in air
  temperature of oxidation/combustion (large weight loss with heat generation / large exothermic peak): around 500 °C
[2]; 1,2,3-trimethylbenzene
  solubility of [60]fullerene in the solvent: 4700 µg/mL
[2]; 1,2,4-trichlorobenzene
  solubility of [60]fullerene in the solvent: 10400 µg/mL
[2]; 1,2,4-trimethylbenzene
  solubility of [60]fullerene in the solvent: 17900 µg/mL
[2]; 1,3,5-trimethylbenzene
  solubility of [60]fullerene in the solvent: 1500 µg/mL
[2]; 1-methylnaphthalene
  solubility of [60]fullerene in the solvent: 33200 µg/mL
[2]; 1-phenylnaphthalene
  solubility of [60]fullerene in the solvent: 50000 µg/mL
[2]; N-methyl-2-pyrrolidone
  solubility of [60]fullerene in the solvent: 890 µg/mL
[2]; bromobenzene
  solubility of [60]fullerene in the solvent: 2800 µg/mL
[2]; chlorobenzene
  solubility of [60]fullerene in the solvent: 5700 µg/mL
[2]; chloroform
  solubility of [60]fullerene in the solvent: 500 µg/mL
[2]; cyclohexane
  solubility of [60]fullerene in the solvent: 50 µg/mL
[2]; decalin
  solubility of [60]fullerene in the solvent: 4600 µg/mL
[2]; dichloromethane
  solubility of [60]fullerene in the solvent: 250 µg/mL
[2]; ethylbenzene
  solubility of [60]fullerene in the solvent: 2600 µg/mL
[2]; m-dichlorobenzene
  solubility of [60]fullerene in the solvent: 2400 µg/mL
[2]; m-xylene
  solubility of [60]fullerene in the solvent: 1400 µg/mL
[2]; n-decane
  solubility of [60]fullerene in the solvent: 70 µg/mL
[2]; n-dodecane
  solubility of [60]fullerene in the solvent: 90 µg/mL
[2]; n-hexane
  solubility of [60]fullerene in the solvent: 40 µg/mL
[2]; n-tetradecane
  solubility of [60]fullerene in the solvent: 126 µg/mL
[2]; o-dichlorobenzene
  solubility of [60]fullerene in the solvent: 24600 µg/mL
[2]; o-xylene
  solubility of [60]fullerene in the solvent: 8700 µg/mL
[2]; p-xylene
  solubility of [60]fullerene in the solvent: 5900 µg/mL
[2]; quinoline
  solubility of [60]fullerene in the solvent: 7200 µg/mL
[2]; tetrahydrofuran
  solubility of [60]fullerene in the solvent: 37 µg/mL
[2]; toluene
  solubility of [60]fullerene in the solvent: 2900 µg/mL
[2]; xylene
  solubility of [60]fullerene in the solvent: 5200 µg/mL

## N-(4-hydroxyphenyl)-2-n-dodecylpyrrolidine-C60 [Compound 3]
[3]
  Solubility in toluene: 6%
[1]; TG in air, result in words
  weight loss attributable to fullerene derivative pyrolysis: No weight loss attributable to fullerene derivative pyrolysis was observed
[4]; 600° C. (in nitrogen)
  weight loss (TG-DTA): 12%
[5]; [6]
  Solubility in toluene: soluble
[5]; after heat treatment (500° C./in air), 10 minutes
  Solubility in toluene: insoluble
[5]; before heat treatment
  Solubility in toluene: soluble

## C60(tBu-isonipecotate)4(O) [Compound 5]
[3]
  Solubility in toluene: ≥ 10%
[1]
  weight loss (TG-DTA): 37%
[1]; in air
  temperature of weight loss attributable to pyrolysis of the fullerene derivative: around 200 °C
[4]; 300° C. (in nitrogen)
  weight loss (TG-DTA): 44%
[4]
  temperature of weight loss attributable to pyrolysis, compared with air: almost the same temperature as in air
[5]; [6]
  Solubility in toluene: insoluble
[5]; before heat treatment
  Solubility in toluene: soluble

## C60 (t-Butoxycarbonylmethylpiperazine)4(O) [Compound 6]
[3]
  Solubility in toluene: ≥ 10%
[1]
  weight loss (TG-DTA): 38%
[1]; in air
  temperature of weight loss attributable to pyrolysis of the fullerene derivative: around 200 °C
[4]; 300° C. (in nitrogen)
  weight loss (TG-DTA): 50%
[4]
  temperature of weight loss attributable to pyrolysis, compared with air: almost the same temperature as in air
